Reference: patent publication US11352322B2, “Cyclopropyl-amide compounds as dual LSD1/HDAC inhibitors” (Jubilant Epicore LLC, priority 2016, dated 2022)
Counter-ions that a name gives are not always drawn. Like-named read-outs stand apart in the source and are kept apart here.

Legend:
MM1S = assay: Anticancer activity: Alamar Blue assay, MM1S; format: cell-based; conditions: Homo sapiens, MM1.S, read-out: MM1S EC50
CCRF-CEM = assay: cells; conditions: Homo sapiens, 144 h, read-out: Anticancer profileration EC50 CCRF-CEM
Procedure: (§1) Anticancer Activity: Alamar Blue Assay
(§2) Cells were seeded at 5000 cells/per well in 96-well tissue culture plate and incubated at 37° C./5% CO2. After 16-24 hours, fresh media was added to the wells. Compounds were then (1% DMSO conc.) added to the cells at 10 concentrations ranging from 10-0.0005 uM prepared in 3-fold serial dilutions. Cells were incubated for 68-72 h at 37° C./5% CO2. Alamar Blue™ reagent was added and incubated for 1-3 hours at 37° C./5% CO2. Plates were read on fluorescence reader at 540 nm excitation, 590 nm emission wave lengths.
(§3) As described above, compounds were tested for anticancer activities in different tumor cell lines and GI50 were determined.

HEL-92.1.7 = assay: cells; conditions: Homo sapiens, HEL 92.1.7, 144 h, read-out: Anticancer profileration EC50 HEL-92.1.7
Procedure: as §1
as §2, with “Cells were incubated for 68-72 h at 37° C./5% CO2.” left out
as §3

OCI-AML3 = assay: cells; conditions: Homo sapiens, OCI-AML-3, 144 h, read-out: Anticancer profileration EC50 OCI-AML3
Procedure: as §1
as §2, with “Cells were incubated for 68-72 h at 37° C./5% CO2.” left out
as §3

MV-4-11 = assay: cells; conditions: Homo sapiens, MV4-11, 144 h, read-out: Anticancer profileration EC50 MV-4-11
Procedure: as §1
as §2, with “Cells were incubated for 68-72 h at 37° C./5% CO2.” left out
as §3

A375 = assay: cells; conditions: Homo sapiens, A-375, 144 h, read-out: Anticancer profileration EC50 A375
Procedure: as §1
as §2, with “Cells were incubated for 68-72 h at 37° C./5% CO2.” left out
as §3

MDAMB231 = assay: cells; conditions: Homo sapiens, MDA-MB-231, 144 h, read-out: Anticancer profileration EC50 MDAMB231
Procedure: as §1
as §2, with “Cells were incubated for 68-72 h at 37° C./5% CO2.” left out
as §3

[1] = Metabolic stability in liver microsomes, MLM; conditions: 1 μM, NADPH
Procedure: (§4) The microsomal suspension was prepared by adding liver microsomes to 100 mM potassium phosphate buffer (pH7.4) to give a final protein concentration of 0.5 mg/mL. The stock solution of NCE (10 mM in DMSO) was added to the microsomes to provide a final concentration of 1 μM. […] Samples were vortexed and centrifuged at 5,000 rpm for 10 min to remove proteins. Supernatant were analyzed on LC-MS/MS.

[2] = Metabolic stability in liver microsomes, HLM; conditions: 1 μM, NADPH
Procedure: as §4

[3] = target: HDAC6 human recombinant enzyme (Homo sapiens (Human), UniProt Q9UBN7); assay: Histone Deacetylase Assay (BPS Biosciences), HDAC6; format: biochemical
Chain of HDAC6 human recombinant enzyme (Q9UBN7 whole entry): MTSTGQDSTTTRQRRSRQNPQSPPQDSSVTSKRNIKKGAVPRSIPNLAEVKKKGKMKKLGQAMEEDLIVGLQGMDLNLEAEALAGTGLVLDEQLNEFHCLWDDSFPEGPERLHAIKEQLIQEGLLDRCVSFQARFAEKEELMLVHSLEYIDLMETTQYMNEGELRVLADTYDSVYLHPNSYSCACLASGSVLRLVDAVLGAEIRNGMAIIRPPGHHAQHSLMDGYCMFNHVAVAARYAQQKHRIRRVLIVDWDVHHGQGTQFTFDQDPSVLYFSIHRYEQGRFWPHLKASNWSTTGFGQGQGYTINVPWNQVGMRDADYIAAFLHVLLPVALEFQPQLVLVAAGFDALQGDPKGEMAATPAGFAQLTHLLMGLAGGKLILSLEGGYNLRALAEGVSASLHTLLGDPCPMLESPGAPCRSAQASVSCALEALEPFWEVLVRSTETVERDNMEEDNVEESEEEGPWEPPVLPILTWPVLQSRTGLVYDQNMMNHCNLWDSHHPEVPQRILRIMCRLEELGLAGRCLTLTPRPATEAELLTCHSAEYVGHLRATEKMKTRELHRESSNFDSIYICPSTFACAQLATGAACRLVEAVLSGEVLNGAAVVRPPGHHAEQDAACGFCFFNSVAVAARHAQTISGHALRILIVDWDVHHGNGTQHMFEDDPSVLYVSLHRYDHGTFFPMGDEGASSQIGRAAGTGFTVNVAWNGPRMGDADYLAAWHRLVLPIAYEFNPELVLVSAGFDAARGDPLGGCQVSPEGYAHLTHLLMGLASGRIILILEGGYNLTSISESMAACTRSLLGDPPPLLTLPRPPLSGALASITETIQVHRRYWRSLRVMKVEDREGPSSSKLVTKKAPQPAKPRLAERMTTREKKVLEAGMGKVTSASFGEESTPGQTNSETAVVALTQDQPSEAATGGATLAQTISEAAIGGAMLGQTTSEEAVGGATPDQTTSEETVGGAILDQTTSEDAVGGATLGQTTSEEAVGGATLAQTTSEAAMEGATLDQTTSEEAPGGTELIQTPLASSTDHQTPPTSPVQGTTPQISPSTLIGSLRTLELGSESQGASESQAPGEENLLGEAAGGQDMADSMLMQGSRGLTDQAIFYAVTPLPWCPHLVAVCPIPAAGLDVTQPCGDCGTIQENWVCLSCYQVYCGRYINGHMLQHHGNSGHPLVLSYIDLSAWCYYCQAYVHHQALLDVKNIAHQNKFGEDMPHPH
From the text: Histone Deacetylase Assay (BPS Biosciences)
Histone deacetylase assay was done as per manufacturer's instructions.

LSD1 = LSD1 (Homo sapiens (Human), UniProt O60341); assay: TR-FRET Assay for LSD1; conditions: read-out: LSD1 IC50
Procedure: TR-FRET Assay for LSD1 (Perkin Elmer)
Tranylcypromine (TCP), LSD1 inhibitor was procured from Selleckchem. […] Stop Solution containing 300 μM tranylcypromine in 1× LANCE Detection Buffer was added to the wells and incubated for 5 min at RT. Then, Detection mix containing 2 nM Eu-Ab and 50 nM ULight-Streptavidin in 1× LANCE Detection Buffer was prepared and added to the reaction mix. This mixture was incubated for 1 hour at room temperature.

[4] = In vivo PK studies in mice; parameters: species or system Male Balb/C mice
Procedure: In Vivo PK Studies in Mice
All the animal experiments were approved by Institutional Animal Ethical Committee (IAEC/JDC/2015/72). Male Balb/C mice (n=24) were procured from Vivo Biotech, Hyderabad, India. The animals were housed in Jubilant Biosys animal house facility in a temperature (22±2° C.) and humidity (30-70%) controlled room (15 air changes/hour) with a 12:12 h light:dark cycles, had free access to rodent feed (Altromin Spezialfutter GmbH & Co. KG., Im Seelenkamp 20, D-32791, Lage, Germany) and water for one week before using for experimental purpose. Following ˜4 h fast (during the fasting period animals had free access to water) animals were divided into two groups (n=12/group). […] Post-dosing serial blood samples (100 μL, sparse sampling was done and at each time point three mice were used for blood sampling) were collected using Micropipettes (Microcaps®; catalogue number: 1-000-0500) through tail vein into polypropylene tubes containing K2.EDTA solution as an anti-coagulant at 0.25, 0.5, 1, 2, 4, 8, 10 and 24 (for oral study) and 0.12, 0.25, 0.5, 1, 2, 4, 8 and 24 (for intravenous study). Plasma was harvested by centrifuging the blood using Biofuge (Hereaus, Germany) at 1760 g for 5 min and stored frozen at −80±10° C. until analysis. Animals were allowed to access feed 2 h post-dosing.
Plasma concentration-time data of the compound was analyzed by non-compartmental method using Phoenix WinNonlin Version 6.3 (Pharsight Corporation, Mountain View, Calif.).

[5] = male, Balb/C, mouse, plasma, IV 2 mg/kg

Structure (SMILES) | EC50 (HEL-92.1.7) | EC50 (OCI-AML3) | EC50 (MV-4-11) | Metabolic stability MLM % remaining in 30 min [1] | Metabolic stability HLM % remaining in 30 min [2] | IC50 [3] | IC50 (LSD1) | further results
O=C(NO)c1cnc(N2CCC(NC3CC3c3ccc(OCc4ccc(F)cc4)cc3)CC2)nc1 (stereo not shown) [Example 12, 2-(4-((2-(4-((4-fluorobenzyl)oxy)phenyl)cyclopropyl)amino)piperidin-1-yl)-N-hydroxypyrimidine-5-carboxamide TFA Salt] | 4 nM | 41 nM | 9 nM | 85% | 95% |  |  | EC50 (MM1S): 11 nM; EC50 (CCRF-CEM): 375 nM; EC50 (A375): 2800 nM; EC50 (MDAMB231): 1300 nM
O=C(NO)c1ccc(CCCN2CCC(CNC3CC3c3ccccc3)CC2)cc1 (stereo not shown) [Example 43, N-hydroxy-4-(3-(4-(((2-phenylcyclopropyl)amino)methyl)piperidin-1-yl)propyl)benzamide TFA Salt] | 1 nM | 115 nM | 2 nM | 56% | 40% |  |  | EC50 (CCRF-CEM): 493 nM; EC50 (A375): 1030 nM; EC50 (MDAMB231): 747 nM
COc1ccc(C2CC2NCC2CCN(CCCc3ccc(C(=O)NO)cc3)CC2)cc1 (stereo not shown) [Example 51, N-hydroxy-4-(3-(4-(((2-(4-methoxyphenyl)cyclopropyl)amino)methyl)piperidin-1-yl)propyl)benzamide TFA Salt] | 3 nM | 14 nM | 31 nM | 91% | 74% | 38 nM | 6 nM | 
O=C(NO)c1ccc(CCCN2CCC(CNC3CC3c3ccc(-c4ccc(Cl)cc4)cc3)CC2)cc1 (stereo not shown) [Example 56, 4-(3-(4-(((2-(4′-chloro-[1,1′-biphenyl]-4-yl)cyclopropyl)amino)methyl)piperidin-1-yl)propyl)-N-hydroxybenzamide TFA Salt] | 10 nM | 10 nM | 7 nM | 75% | 87% | 19 nM | 2 nM | 
COc1ccc(C2CC2NCc2cn3c(n2)CN(CCCc2ccc(C(=O)NO)cc2)CC3)cc1 (stereo not shown) [Example 71, N-hydroxy-4-(3-(2-(((2-(4-methoxyphenyl)cyclopropyl)amino)methyl)-5,6-dihydroimidazo[1,2-a]pyrazin-7(8H)-yl)propyl)benzamide TFA Salt] | 6050 nM | 732 nM | 990 nM | < 5% | 73% | 28 nM | 1100 nM | 
O=C(NO)c1ccc(CCCN2CCn3cc(CNC4CC4c4ccc(F)cc4)nc3C2)cc1 (stereo not shown) [Example 72, 4-(3-(2-(((2-(4-fluorophenyl)cyclopropyl)amino)methyl)-5,6-dihydroimidazo[1,2-a]pyrazin-7(8H)-yl)propyl)-N-hydroxybenzamide TFA Salt] | 4800 nM | 573 nM | 978 nM | < 5% | 67% | 18 nM | 730 nM | EC50 (MM1S): 343 nM
Cn1cc(-c2ccc(C3CC3NCC3CCN(Cc4ccc(C(=O)Nc5ccccc5N)cc4)CC3)cc2)cn1 (stereo not shown) [Example 142, N-(2-aminophenyl)-4-((4-(((2-(4-(1-methyl-1H-pyrazol-4-yl)phenyl)cyclopropyl)amino)methyl)piperidin-1-yl)methyl)benzamide TFA Salt] |  |  |  | 52% | 72% | > 10000 nM | 12 nM | EC50 (MM1S; MM1S cells): 120 nM; AUC IV ([4]; IV 2 mg/kg): 357 ng/mL/h; AUC PO ([4]; PO 50 mg/kg): 3217 ng/mL/h; C0 [4, 5]: 198 ng/mL; Vd [4, 5]: 25 L/kg; Cmax ([4]; male, Balb/C, mouse, plasma, IV 2 mg/kg, read-out: CMax IV): 150 ng/mL; clearance ([4]; male, Balb/C, mouse, plasma, IV 2 mg/kg, read-out: Cl IV): 88 mL/min/kg; half-life ([4]; male, Balb/C, mouse, plasma, IV 2 mg/kg, read-out: t1/2 IV (converted)): 12.6 h; Cmax ([4]; male, Balb/C, mouse, plasma, PO 50 mg/kg, read-out: CMax PO): 555 ng/mL; half-life ([4]; male, Balb/C, mouse, plasma, PO 50 mg/kg, read-out: t1/2 PO (converted)): 6.7 h; bioavailability ([4]; male, Balb/C, mouse, plasma, dose IV/PO 2/50 mg/kg): 36%
